Results taken from US11732259B2, “Peptide oligonucleotide conjugates” (Sarepta Therapeutics, Inc., priority 2011, dated 2023).
{EG3} = triethylene glycol 5' cap structure on the morpholino oligomer

Assays:
[1] = system: exon 23 of the dystrophin gene; conditions: in vivo; cited from earlier work
dystrophin mRNA exon 23 = experiment: Exon 23 skipping in MDX mice, end-point PCR on muscle RNA
Experimental: MDX mice were dosed once (50 mg/kg) by tail vein injection with one of the following conjugates:
One week post-injection, the MDX mice were sacrificed and RNA was extracted from various muscle tissues. End-point PCR was used to determine the relative abundance of dystrophin mRNA containing exon 23 and mRNA lacking exon 23 due to antisense-induced exon skipping. Percent exon 23 skipping is a measure of antisense activity in vivo.

[2] = assay type: in vivo, mouse
Experimental: Mice were treated with the conjugates described in Example 30, and KIM-1 levels, BUN levels and survival rate were determined according to the general procedures described in Example 32 below and known in the art. […]. The day of dosing on the study was designated as Study Day 1. Conjugate was administered via tail vein as a slow push bolus (˜5 seconds). All animals were dosed over two days. Groups 1-8 were dosed on the first day and Groups 9-16 were dosed on the second day. Treatment Groups (TG) 13-16 were dosed per the table above. […] The first 2 TG of each conjugate were dosed per the table above. If all animals in 100 mg/kg group died then the remaining TGs of that test article would not be dosed and the study would end. If at least one animal survived 2 hours post-dose in the 100 mg/kg group, then the 150 mg/kg group was dosed. If all animals in the 150 mg/kg group died then the remaining TGs of that test article would not be dosed and the study would end. […]
Any animal showing signs of distress, particularly if death appeared imminent was humanely euthanized according to Numira Biosciences Standard Operating Procedures. Body weights were recorded on the day after arrival, the day of dosing, and the day of necropsy. Detailed clinical observations were conducted and recorded at 0 minutes, 15 minutes, and 2 hours post-dose to assess tolerability of injections.

KIM-1 = assay type: in vivo, mouse; conditions: Example 32, FIG. 10; C57/BL6 mice, single i.v. tail vein injection, kidney qRT-PCR vs GAPDH
Experimental: Mice were treated with the conjugates described in Example 30, and KIM-1 levels, BUN levels and survival rate were determined according to the general procedures described in Example 32 below and known in the art. […]. The right and left kidneys were collected. Tissues were collected within minutes or less of euthanasia. All instruments and tools used were changed between treatment groups. All tissues were flash frozen and stored at <−70° C. as soon as possible after collection.
Kidney injury marker data was obtained as follows. RNA from mouse kidney tissue was purified using Quick Gene Mini80 Tissue Kit SII (Fuji Film). Briefly, approximately 40 mg of tissue was added to 0.5 ml lysis buffer (5 μl […] in 0.5 ml lysis buffer) in a MagnaLyser Green Bead vial (Roche) and homogenized using MagNA Lyser (Roche) with 2 sets of 3×3800 RPM and 3 sets of 1×6500 RPM.
Samples were cooled on ice 3-4 minutes between each low speed set and between each higher speed run. Homogenates were centrifuged 5 minute at 400×g at room temperature. The homogenate was immediately processed for RNA purification according to the Quick Gene Mini80 protocol. […] Total RNA was quantitated with a NanoDrop 2000 spectrophotometer (Thermo Scientific). […]
Analysis was performed using ΔΔCt method. […] Fold change range calculated: 2^−(ΔΔCt+SD) to 2^−(ΔΔCt-SD). […]

RSV [3] = conditions: cultures of two human airway cell lines (Lai, Stein et al. 2008); cited from earlier work
RSV [4] = conditions: BALB/c mice, intranasal treatment before RSV inoculation, cited from earlier work

Substance: 5′-EG3-M23D-BX(RXRRBR)2 (GGCCAAACCTCGGCTTACCTGAAAT; all phosphorodiamidate morpholino (PMO), 5' {EG3}; morpholino, carrier peptide BX(RXRRBR)2 conjugated at 3' end) [AVI-5225]
- Activity in the MDX mouse model for DMD [1]: activity
- Dose response of exon 23 skipping (dystrophin mRNA exon 23; one week post-treatment, AVI-5225 compared with the other conjugates): similar

Substance: 5′-EG3-M23D-G(R)6 [NG-11-0009]
- Doses at which all mice survived ([2]; Example 31, data not shown): up to 400 mg/kg
- KIM concentrations (KIM-1): lowest
- Percent exon 23 skipping, diaphragm (dystrophin mRNA exon 23; dosed once 50 mg/kg tail vein, one week post-injection, diaphragm (FIGS. 5B, 6B), amongst the arginine series): highest efficacy
- Percent exon 23 skipping, quadriceps (dystrophin mRNA exon 23; dosed once 50 mg/kg tail vein, one week post-injection, quadriceps (FIGS. 5A, 6A), amongst the arginine series): highest efficacy

Substance: 5′-EG3-M23D-G(R)8 [NG-11-0216]
- Survival rate ([2]; Example 31, FIG. 7B, compared with the XB linked conjugate / amongst the arginine polymers): least tolerated of the arginine polymers

Substance: TAATGGGATCCATTTTGTCCC (all phosphorodiamidate morpholino (PMO); peptide-conjugated morpholino (PPMO), peptide not given here) [RSV-AUG-2, peptide conjugated PMO (PPMO) targeting the translation start-site region of RSV L mRNA]
- Reduction of viral titers (RSV [3]): > 2.0 log10
- Reduction in viral titer in lung tissue (RSV [4]; day 5 postinfection): 1.2 log10
- Pulmonary inflammation (RSV [4]; day 7 postinfection): attenuated
